Among the data in patent publication US9441000B2, “Use of metallocene compounds for cancer treatment” (Chevron Phillips Chemical Company LP, priority 2011, dated 2016) are IC50 values, retold here.

By IC50 is commonly meant the point on the concentration scale where inhibition reaches its midpoint.

What all share (assay type): cell-based
For test [1], the system named is NCI-Adr-Res chemoresistant ovarian cancer cells. Briefly: CellTiter-Blue viability assay, NCI-Adr-Res. As to conditions: Homo sapiens, 96 hr treatment, approximately 5,000 NCI-Adr-Res cells. The protocol:
(§1) Examples 18-22 were prepared and tested as follows. Approximately 5,000 A549 cells (University of Texas M.D. Anderson Cancer Center) growing in RPMI 1640 were plated in each 96-well overnight before adding the test compounds for 96 hr of treatment. Final concentrations achieved in the wells were 0, 0.8, 1.6, 3.1, 6.2, 12.5, 25, 50, 100, and 200 μM. All of the test compounds were reconstituted in DMSO just before the treatment. […] After 96 hr, the medium was refreshed. Approximately 10 μL of CellTiter-Blue® (Promega) was added to 100 μL of medium in each well and incubated at 37° C. for >4 hours. The plates were scanned using a SpectraMax M2 model microplate reader to measure the absorbance. CellTiter-Blue contains dark blue resazurin. Viable cells are able to convert non-fluorescent resazurin to its fluorescent product, resorufin. […] Reduction of resazurin to resorufin also involves a shift of the absorbance maximum from 605 nm to 573 nm, so viability can also be estimated using absorbance. Results were normalized to untreated controls to determine the percent reduction in viability. Graphs were generated using GraphPad Prism (GraphPad Software, Inc).
Examples 42-45 were prepared and tested using substantially the same procedure as described in Examples 18-22, except that approximately 5,000 NCI-Adr-Res ovarian cancer cells (National Cancer Institute) were used. […]

Test [2] has as its system Hey-A8 MDR chemoresistant ovarian cancer cells. Briefly: CellTiter-Blue viability assay, Hey-A8 MDR. As to conditions: HeyA8-MDR, 96 hr treatment, approximately 5,000 Hey-A8 MDR cells. How it is done:
as §1
Examples 38-41 were prepared and tested using substantially the same procedure as described in Examples 18-22, except that approximately 5,000 Hey-A8 MDR ovarian cancer cells (University of Texas M.D. Anderson Cancer Center) were used. […]
For orientation: The colour change of resazurin is a common sign of viable cells or microbes.

Test [3] has as its system MeWo chemoresistant melanoma cancer cells. Briefly: CellTiter-Blue viability assay, MeWo. As to conditions: Homo sapiens, 96 hr treatment, approximately 5,000 MeWo cells. How it is done: as §1
Examples 50-53 were prepared and tested using substantially the same procedure as described in Examples 18-22, except that approximately 5,000 MeWo melanoma cancer cells (University of Texas M.D. Anderson Cancer Center) were used. […]

For test [4], the system named is A2780 (ovarian cancer) cell line. Briefly: Sulforhodamine-B (SRB) microculture colorimetric cytotoxicity assay, A2780. The conditions noted are these: 96 hr treatment, A2780 ovarian cancer cells, read-out: IC50 ± SD, A2780. How it is done: (§2) Drug solutions of CPH-1, CPH-2 and CPH-3 were made in dimethyl sulfoxide (DMSO, Sigma Aldrich) at a concentration of 20 mM, filtered through a Millipore filter, 0.22 μm, before use, and diluted by nutrient medium to various working concentrations. The nutrient medium was RPMI-1640 (PAA Laboratories) supplemented with 10% fetal bovine serum (Biochrom AG) and penicillin/streptomycin (PAA Laboratories). […]
(§3) The cytotoxic activities of CPH-1, CPH-2 and CPH-3 were evaluated using a sulforhodamine-B (SRB, Sigma Aldrich) microculture colorimetric assay, as described in Skehan et al., J. Natl. Cancer I. 82 (1990) 1107-1112, the disclosure of which is incorporated herein by reference in its entirety. […] The percentages of surviving cells relative to untreated controls were determined 96 hr after the beginning of drug exposure. […] After dyeing, the plates were again washed to remove the dye with 1% acetic acid and allowed to air dry overnight, 100 μL of 10 mM Tris base solutions were added to each well of the plate, and absorbance was measured at 570 nm using a 96 well plate reader (Tecan Spectra, Crailsheim, Germany). […]

Test [5] concerns T-24 chemoresistant urinary bladder cancer cells. Briefly: CellTiter-Blue viability assay, T-24. As to conditions: 96 hr treatment, approximately 5,000 T-24 cells. How it is done:
as §1
Examples 46-49 were prepared and tested using substantially the same procedure as described in Examples 18-22, except that approximately 5,000 T-24 urinary bladder cancer cells (American Type Culture Collection) were used. […]

The subject of test [6] is A2780 ovarian cancer cells. Briefly: CellTiter-Blue viability assay, A2780, approximately 2,000 cells (Examples 23-27). As to conditions: 96 hr treatment, approximately 2,000 A2780 cells. How it is done:
as §1
Examples 23-27 were prepared and tested using substantially the same procedure as described in Examples 18-22, except that approximately 2,000 A2780 ovarian cancer cells (University of Texas M.D. Anderson Cancer Center) were used. […]

The test system of test [7] is SKOV-3 chemoresistant ovarian cancer cells. Briefly: CellTiter-Blue viability assay, SKOV-3. The conditions noted are these: 96 hr treatment, approximately 5,000 SKOV-3 cells. How it is done: as §1
Examples 34-37 were prepared and tested using substantially the same procedure as described in Examples 18-22, except that approximately 5,000 SKOV-3 ovarian cancer cells (American Type Culture Collection) were used. […]

Test [8] concerns A549 (lung carcinoma) cell line. Briefly: Sulforhodamine-B (SRB) microculture colorimetric cytotoxicity assay, A549. As to conditions: 96 hr treatment, A549 lung carcinoma cells, read-out: IC50 ± SD, A549. The protocol: as §2, §3
Test [9] has as its system A253 (head and neck tumor) cell line. Briefly: Sulforhodamine-B (SRB) microculture colorimetric cytotoxicity assay, A253. The conditions noted are these: 96 hr treatment, A253 head and neck tumor cells, read-out: IC50 ± SD, A253. The protocol:
as §2, §3

Test [10] deals with A549 lung carcinoma cell line. Briefly: CellTiter-Blue viability assay, A549 (Examples 18-22). As to conditions: 96 hr treatment, approximately 5,000 A549 cells per well. How it is done:
as §1

Some results are limits rather than exact numbers.

Compound `COc1cccc2c1C(=O)c1c(O)c3c(c(O)c1C2=O)C[C@@](O)(C(=O)CO)C[C@@H]3O[C@H]1C[C@H](N)[C@H](O)[C@H](C)O1` [Doxorubicin, doxorubicin, reference compound] had a half-maximal inhibitory concentration (IC50) in [1] of 14.3 µM.
In the case of `CC(=O)O[C@H]1C(=O)[C@@]2(C)[C@H]([C@H](OC(=O)c3ccccc3)[C@]3(O)C[C@H](OC(=O)[C@H](O)[C@@H](NC(=O)c4ccccc4)c4ccccc4)C(C)=C1C3(C)C)[C@]1(OC(C)=O)CO[C@@H]1C[C@@H]2O` [Paclitaxel, paclitaxel, reference compound], half-maximal inhibition in test [2] (IC50) required 0.03 µM.
`CN(C)/N=N/c1[nH]cnc1C(N)=O` [Dacarbazine, dacarbazine, reference compound] gave an IC50 in test [3] of 7.9 µM.
Take `N.N.[Cl][Pt][Cl]` [Cisplatin, cisplatin, reference compound]: the IC50 in [4] is 0.55 ± 0.03 µM; in [5], more than 200 µM; in test [6] it was 35.4 µM; in test [7], 12.8 µM; in [8], 1.51 ± 0.02 µM; in test [9], 0.81 ± 0.02 µM. This compound gave a 50% inhibitory concentration (IC50) in [10] of 82.7 µM.
